pKi: −log10 of the molar value. Where two headings read alike, the source gives them in different places. Values belong to the molecule of their own block, whether it stands above or below them.
How the values were obtained:
shikimate kinase (SaSK) [1] = molecular target: T1, shikimate kinase (SaSK) (Staphylococcus aureus, UniProt Q5HFM1); experiment: coupled enzyme assay, purified SaSK, % inhibition at […]; type: biochemical
T1 construct: gene aroK

shikimate kinase (SaSK) [2] = molecular target: T1, shikimate kinase (SaSK); experiment: pyruvate kinase/lactate dehydrogenase coupled assay with purified SaSK; Lineweaver-Burk (Ki […] vs shikimate, […] vs ATP); type: biochemical
shikimate kinase (SaSK) [3] = molecular target: T2, shikimate kinase (SaSK) (Staphylococcus aureus, UniProt Q5HFM1); experiment: biochemical; set-up: Coupled PK/LDH assay of purified SaSK, NADH oxidation at 340 nm, fixed-concentration inhibition screen, 25 °C
T2 construct: gene aroK
T2 sequence (Q5HFM1 1-174): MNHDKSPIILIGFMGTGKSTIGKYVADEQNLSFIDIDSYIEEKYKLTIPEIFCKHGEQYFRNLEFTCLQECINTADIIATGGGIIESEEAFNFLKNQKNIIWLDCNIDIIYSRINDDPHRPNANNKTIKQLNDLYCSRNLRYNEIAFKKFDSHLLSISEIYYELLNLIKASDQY
Protocol: The activity of purified SaSK was measured by a coupled assay described by Favela et al., [67] following the oxidation of NADH to NAD, monitored at 340 nm using an Hp Agilent 8453 UV-VIS spectrophotometer. The assay mixture contained 100 mM Tris-HCl pH 7.6, 5 mM MgCl2, 100 mM KCl, 2 mM ATP, 1 mM shikimate, 1 mM phosphoenolpyruvate, 6 μg/mL pyruvate kinase, 6 μg/mL lactate dehydrogenase, 0.25 mM NADH, 10% of dimethyl sulfoxide (DMSO), and 70 ng of purified SaSK protein. All assays were performed in triplicate at 25 °C. It is important to mention that at the percentage of DMSO used, the activity of the enzyme was not affected. The primary screening of the benzimidazole compound library was carried out at a fixed concentration of 200 µM or at the maximum solubility possible for compounds with poor solubility in assay conditions. All the compounds were dissolved in DMSO.

shikimate kinase (SaSK) [4] = molecular target: T1, shikimate kinase (SaSK); experiment: pyruvate kinase/lactate dehydrogenase coupled assay with purified SaSK; Lineweaver-Burk (Ki […] vs shikimate, […] vs ATP); type: biochemical; remark: listed apart in the source

- inhibition at 100 µM (shikimate kinase (SaSK) [1]): 40%
SMILES: Cn1cnc2cc(C(=O)NN=Cc3ccc([N+](=O)[O-])o3)ccc21 [C4, 1-Methyl-N′-[(5-nitrofuran-2-yl)methylene]-1H-benzimidazole-5-carbohydrazide]

SMILES: O=C(NN=Cc1ccc([N+](=O)[O-])o1)c1ccc2[nH]cnc2c1 [C1, N′-[(5-Nitrofuran-2-yl)methylene]-1H-benzimidazole-5-carbohydrazide]
- pKi (shikimate kinase (SaSK) [2]): 4.32
- inhibition at 70 µM (shikimate kinase (SaSK) [3]): 50%

SMILES: Cn1c(C(F)(F)F)nc2cc(C(=O)NN=Cc3ccc([N+](=O)[O-])o3)ccc21 [C2, 1-Methyl-N′-[(5-nitrofuran-2-yl)methylene]-2-(trifluoromethyl)-1H-benzimidazole-5-carbohydrazide]
- pKi (shikimate kinase (SaSK) [4]): 4.30
- inhibition at 100 µM (shikimate kinase (SaSK) [3]): 60%

- inhibition at 100 µM (shikimate kinase (SaSK) [1]): 43%
SMILES: O=C(NN=Cc1ccc([N+](=O)[O-])o1)c1ccc2[nH]c(C(F)(F)F)nc2c1 [C3, N′-[(5-Nitrofuran-2-yl)methylene]-2-(trifluoromethyl)-1H-benzimidazole-5-carbohydrazide]
